Measurements reported in article PMC6060247, “Disruption of Amino Acid Homeostasis by Novel ASCT2 Inhibitors Involves Multiple Targets” (Frontiers in Pharmacology, 2018).

Legend:
[1] = molecular target: T1, LAT1 (SLC7A5) (Rattus norvegicus, UniProt Q63016); assay: isoleucine uptake in Xenopus laevis oocytes expressing h4F2hc/rLAT1; type: cell-based
T1 construct: with human 4F2hc

[2] = molecular target: T2, SNAT1 (SLC38A1) (Homo sapiens, UniProt Q9H2H9); assay: glutamine uptake in Xenopus laevis oocytes expressing hSNAT1; type: cell-based
T2 sequence (Q9H2H9 1-487): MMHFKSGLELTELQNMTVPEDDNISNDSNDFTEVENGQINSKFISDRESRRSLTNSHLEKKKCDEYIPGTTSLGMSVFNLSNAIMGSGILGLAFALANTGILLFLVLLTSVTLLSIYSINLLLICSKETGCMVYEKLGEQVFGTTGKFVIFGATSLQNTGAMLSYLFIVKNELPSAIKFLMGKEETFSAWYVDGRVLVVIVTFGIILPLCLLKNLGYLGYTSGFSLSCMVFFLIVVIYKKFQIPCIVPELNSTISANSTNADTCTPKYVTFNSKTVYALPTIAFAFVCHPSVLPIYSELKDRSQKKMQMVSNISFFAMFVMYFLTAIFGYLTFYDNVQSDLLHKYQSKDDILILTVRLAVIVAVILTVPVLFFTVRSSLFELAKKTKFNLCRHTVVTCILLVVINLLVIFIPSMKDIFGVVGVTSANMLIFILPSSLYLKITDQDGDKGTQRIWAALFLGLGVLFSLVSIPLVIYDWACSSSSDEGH

T1 sequence (Q63016 whole entry): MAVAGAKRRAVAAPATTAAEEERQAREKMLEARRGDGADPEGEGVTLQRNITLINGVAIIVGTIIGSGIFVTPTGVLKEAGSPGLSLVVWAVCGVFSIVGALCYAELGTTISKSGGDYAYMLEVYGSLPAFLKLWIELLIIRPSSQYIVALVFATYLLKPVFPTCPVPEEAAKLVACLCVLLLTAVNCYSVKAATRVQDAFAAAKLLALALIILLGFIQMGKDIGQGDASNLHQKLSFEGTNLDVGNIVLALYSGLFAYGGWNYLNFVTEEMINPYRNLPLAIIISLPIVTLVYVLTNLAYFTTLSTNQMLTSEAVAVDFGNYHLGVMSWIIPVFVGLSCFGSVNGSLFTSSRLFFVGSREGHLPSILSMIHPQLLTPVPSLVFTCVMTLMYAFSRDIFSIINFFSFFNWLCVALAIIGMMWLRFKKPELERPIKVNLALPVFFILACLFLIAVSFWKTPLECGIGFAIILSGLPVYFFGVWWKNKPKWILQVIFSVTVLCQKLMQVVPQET
T1 sequence (P08195 103-630 partner): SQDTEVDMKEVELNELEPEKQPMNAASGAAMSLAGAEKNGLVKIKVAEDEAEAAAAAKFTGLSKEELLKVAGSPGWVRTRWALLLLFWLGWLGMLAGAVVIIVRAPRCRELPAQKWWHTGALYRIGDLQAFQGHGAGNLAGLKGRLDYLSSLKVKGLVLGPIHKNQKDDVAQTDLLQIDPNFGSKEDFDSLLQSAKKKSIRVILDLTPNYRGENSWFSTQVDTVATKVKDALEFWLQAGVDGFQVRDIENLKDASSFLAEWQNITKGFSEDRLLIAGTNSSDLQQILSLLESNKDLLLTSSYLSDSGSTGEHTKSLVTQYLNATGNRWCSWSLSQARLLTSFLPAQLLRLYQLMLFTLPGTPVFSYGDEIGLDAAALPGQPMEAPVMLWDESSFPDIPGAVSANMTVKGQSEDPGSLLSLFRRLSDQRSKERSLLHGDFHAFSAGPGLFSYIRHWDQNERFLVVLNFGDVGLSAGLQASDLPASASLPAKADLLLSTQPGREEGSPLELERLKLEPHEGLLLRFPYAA

Row | SMILES | isoleucine uptake in Xenopus laevis oocytes expressing h4F2hc/rLAT1 [1] | glutamine uptake in Xenopus laevis oocytes expressing hSNAT1 [2]
1 | CC[C@H](C)[C@H](N)C(=O)O [isoleucine] | isoleucine transport was used to measure h4F2hc/rLAT1 activity | 
2 | NC(=O)CC[C@H](N)C(=O)O [glutamine] |  | Glutamine uptake was used to measure hSNAT1, hSNAT2, and hASCT2 activity
